Tests used:
Assay type in all cases: functional
Mus musculus [1] = experiment: Ability to inhibit the accumulation of gamma-interferon (gamma-IFN) in the serum of […] parvum-primed mice by po administration
Mus musculus [2] = experiment: Ability to inhibit the accumulation of cytokine interleukin-6 (IL-6) in the serum of […] parvum-primed mice by po administration
Mus musculus [3] = experiment: Ability to inhibit the accumulation of tumor necrosis factor-alpha (TNF-alpha) in the serum of […] parvum-primed mice by po administration
Mus musculus [4] = experiment: Ability to inhibit the accumulation of inflammatory cytokine interleukin-1 alpha (IL-1 alpha) in the serum of […] parvum-primed mice by po administration
Mus musculus [5] = species: Mus musculus; experiment: In vitro inhibitory activity was measured for the release of tumor necrosis factor-alpha (TNF-alpha) from a murine monocytic cell line

Row | Structure (SMILES) | ED50 (Mus musculus [1]) [mg/kg] | ED50 (Mus musculus [2]) [mg/kg] | ED50 (Mus musculus [3]) [mg/kg] | ED50 (Mus musculus [4]) [mg/kg] | IC50 (Mus musculus [5]) [nM]
1 | CCCC1(CCCN(C)C)c2ccccc2CCc2ccccc21 | 5.9 | 15.8 | > 25 | 8.7 | –
2 | CCCCCCC1(CCN(C)C)c2ccccc2CCc2ccccc21 | > 25 | > 25 | > 25 | > 25 | –
3 | CCOC1(CCN(C)C)c2ccccc2C=Cc2ccccc21 | 13.2 | > 25 | > 25 | > 6.25 | –
4 | CCOCC1(CCNC)c2ccccc2CCc2ccccc21 | > 25 | > 25 | > 25 | > 25 | –
5 | CCOC1(CCN(C)C(C)=O)c2ccccc2CCc2ccccc21 | > 25 | > 25 | > 25 | > 25 | –
6 | CCCC1(CCN(C)C)c2ccccc2CCc2ccccc21 | 10.8 | 23.3 | – | 6.25 | –
7 | CCOC1(CCN2CCCC2)c2ccccc2CCc2ccccc21 | 11.3 | – | 16.1 | 11.1 | –
8 | CCOCC1(CCN(C)C)c2ccccc2CCc2ccccc21 | 13.5 | > 25 | 19.6 | 18.1 | –
9 | CCOC1(CCN(C)C)c2ccccc2CCc2cccnc21 (configuration not stated) | > 25 | > 25 | > 25 | > 25 | –
10 | CN(C)CCC1(O)c2ccccc2CCc2ccccc21 | > 25 | > 25 | > 25 | > 25 | –
11 | CCOC1(CCN(C)C)c2ccccc2CCc2ccccc21 | 1.3 | 8 | 17.6 | 2.4 | 1700
12 | CCCC1(CN(C)C)c2ccccc2CCc2ccccc21 | 3.9 | 25 | > 25 | > 25 | –

— ChEMBL document CHEMBL1128081, “Synthesis of dibenzo[a,d]cycloheptanes as cytokine biosynthesis inhibitors” (Bioorg Med Chem Lett, 1995)
